We go through 15 compounds from US9796753B2, “N-substituted indenoisoquinolines and syntheses thereof” (Purdue Research Foundation, priority 2005, dated 2017).

The structures appear in SMILES notation. Read-outs that look alike come from different tables or passages of the source.

The test system of data set [1] is all human cancer cell lines successfully tested. The data set is described as follows: NCI screen mean graph midpoint (MGM) for growth inhibition. Format: cell-based. Conditions: Homo sapiens; read-out: MGM GI50. A digest of the protocol: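 NCI60 panel cells exposed to compound at 100, 10, 1, 0.1 and 0.01 μM for 48 h, then sulforhodamine B staining. Percentage growth versus control plotted against log concentration; MGM is the midpoint across all lines tested.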

The target of the next data set is recombinant TDP1 (Homo sapiens, UniProt Q9NUW8). The data set is described as follows: Gel-based assay measuring the inhibition of recombinant TDP1. Type of data set: biochemical. On the procedure: A 5′-[^32P]-labeled single-stranded DNA oligonucleotide containing a 3′-phosphotyrosine (N14Y) was generated as described by Dexheimer et al. (J. Med. Chem. 2009, 52, 7122-7131). The DNA substrate was then incubated with 5 μM recombinant TDP1 in the absence or presence of inhibitor for 15 min at room temperature in a buffer containing 50 mM Tris HCl, pH 7.5, 80 mM KCl, 2 mM EDTA, 1 mM DTT, 40 μg/ml BSA and 0.01% Tween-20. Reactions were terminated by the addition of 1 volume of gel loading buffer [99.5% (v/v) formamide, 5 mM EDTA, 0.01% (w/v) xylene cyanol, and 0.01% (w/v) bromophenol blue]. Samples were subjected to a 16% denaturing PAGE and gels were exposed after drying to a PhosphorImager screen (GE Healthcare). Gel images were scanned using a Typhoon 8600 (GE Healthcare) and densitometric analyses were performed using the ImageQuant software (GE Healthcare).
recombinant TDP1, sequence (Q9NUW8 whole entry): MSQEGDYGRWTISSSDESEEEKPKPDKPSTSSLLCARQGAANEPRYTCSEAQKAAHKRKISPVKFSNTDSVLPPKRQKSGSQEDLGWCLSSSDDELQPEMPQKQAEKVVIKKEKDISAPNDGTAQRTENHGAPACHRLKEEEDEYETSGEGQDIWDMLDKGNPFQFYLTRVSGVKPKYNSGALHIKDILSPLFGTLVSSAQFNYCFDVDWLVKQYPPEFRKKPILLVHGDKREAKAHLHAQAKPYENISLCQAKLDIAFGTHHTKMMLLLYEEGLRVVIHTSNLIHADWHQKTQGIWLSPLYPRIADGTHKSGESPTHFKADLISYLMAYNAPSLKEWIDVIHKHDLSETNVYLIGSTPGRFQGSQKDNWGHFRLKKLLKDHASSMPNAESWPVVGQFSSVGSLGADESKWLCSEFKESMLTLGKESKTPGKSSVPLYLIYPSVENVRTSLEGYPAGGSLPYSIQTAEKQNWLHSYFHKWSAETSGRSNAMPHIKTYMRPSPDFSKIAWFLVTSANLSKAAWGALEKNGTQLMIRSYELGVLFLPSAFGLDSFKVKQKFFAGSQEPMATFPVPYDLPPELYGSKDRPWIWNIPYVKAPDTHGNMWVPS
The TDP1 inhibitory activities of the O-2-substituted indenoisoquinolines were measured by determining their abilities to inhibit the hydrolysis of the phosphodiester linkage between tyrosine and the 3′-end of a DNA oligonucleotide substrate and thus prevent the generation of an oligonucleotide with a free 3′-phosphate (N14P, Scheme 13). Therefore, the disappearance of the gel band for N14P indicates TDP1 inhibition.
Tyrosyl-DNA phosphodiesterase 1 (TDP1) is a DNA repair enzyme that repairs cytotoxic DNA damage induced by Top1 inhibitors.

The target of a further data set is T1, Human recombinant Top1 (Homo sapiens, UniProt P11387).
T1 construct: made in house
T1 sequence (P11387 1-765): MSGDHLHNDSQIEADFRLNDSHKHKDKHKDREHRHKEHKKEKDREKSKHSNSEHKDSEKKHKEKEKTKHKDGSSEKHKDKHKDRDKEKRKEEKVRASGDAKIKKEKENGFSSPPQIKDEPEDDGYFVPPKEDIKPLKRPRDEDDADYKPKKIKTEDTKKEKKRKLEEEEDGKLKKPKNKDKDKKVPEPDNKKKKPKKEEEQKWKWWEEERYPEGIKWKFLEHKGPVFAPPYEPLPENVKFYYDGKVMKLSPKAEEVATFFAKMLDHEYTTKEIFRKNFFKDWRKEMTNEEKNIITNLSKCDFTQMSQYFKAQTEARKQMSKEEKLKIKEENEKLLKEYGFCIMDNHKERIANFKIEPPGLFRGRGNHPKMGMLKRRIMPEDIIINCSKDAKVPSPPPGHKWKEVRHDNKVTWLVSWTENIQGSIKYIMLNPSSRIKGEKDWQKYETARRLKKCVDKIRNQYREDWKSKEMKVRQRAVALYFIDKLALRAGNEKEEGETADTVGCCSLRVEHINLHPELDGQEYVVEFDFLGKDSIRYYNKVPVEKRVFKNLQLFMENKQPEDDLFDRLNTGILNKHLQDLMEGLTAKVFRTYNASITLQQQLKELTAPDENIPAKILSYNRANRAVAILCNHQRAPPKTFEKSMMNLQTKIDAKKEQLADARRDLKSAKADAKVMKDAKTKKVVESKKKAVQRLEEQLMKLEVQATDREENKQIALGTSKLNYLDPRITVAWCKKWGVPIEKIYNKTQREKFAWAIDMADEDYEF
The data set is described as follows: Topoisomerase 1-mediated DNA cleavage reactions (B), 117-bp DNA oligonucleotide. Format: biochemical. Further details: key to Top1 inhibitory activity (level): 0, no detectable activity; +, weak activity; ++, similar activity to compound 33; +++, greater activity than 33; ++++, equipotent to 32; Ambiguous scores (e.g., between two values) are designated with parentheses (e.g., ++(+) would be between ++ and +++); key to Top1 (compound-induced DNA cleavage due to Top1 inhibition): 0, no detectable activity; +, weak activity; ++, similar activity to compound 5; +++, greater activity than 34; ++++ , equipotent to 32; The (+) ranking indicates the activity lies between two given values. To be noted: Table 5; for Top1 inhibitory activity (level): relative to compounds 32 and 33; for Top1 (compound-induced DNA cleavage due to Top1 inhibition): semiquantitative scale relative to 1 μM camptothecin (32) or MJ-III-65 (34). How it is done: Human recombinant Top1 was purified from baculovirus as described in Bailly, C. Curr. Med. Chem. 2000, 7, 39-58. DNA cleavage reactions were prepared as previously reported with the exception of the DNA substrate in Saltz, et al. Oncologist 1997, 2, 402-409.
Approximately 2 nM radiolabeled DNA substrate was incubated with recombinant Top1 in 20 μL of reaction buffer [10 mM Tris-HCl (pH 7.5), 50 mM KCl, 5 mM MgCl2, 0.1 mM EDTA, and 15 μg/mL BSA] at 25° C. for 20 min in the presence of various concentrations of compounds. […] Aliquots of each reaction mixture were subjected to 20% denaturing PAGE. Gels were dried and visualized using a phosphoimager and ImageQuant software (Molecular Dynamics).
All of the new indenoisoquinoline derivatives with C-2 side chains were tested in Top1-mediated DNA cleavage assays. For this purpose, a ^32P 3′-end labeled 117-bp DNA fragment was incubated with Top1 and four 10-fold dilutions starting from 100 μM of a tested compound. The DNA fragments were separated on 20% PAGE denaturing gels. The Top1 inhibitory activities were assigned on the basis of the visual inspection of the number and intensities of the gel bands corresponding to Top1-mediated DNA cleavage fragments. […] Ambiguous scores (e.g., between two values) are designated with parentheses (e.g., ++(+) would be between ++ and +++).

The mark [2] stands for this setting: Table 7, scores correspond to IC50 ranges, read-out: TDP1 inhibition.
The mark [3] stands for this setting: Table 5, determined in duplicate, read-out: TDP1 (IC50, semiquantitative scale).
The mark [4] stands for this setting: Table 5, determined in duplicate, read-out: TDP1 inhibitory activity (potency score).

On to `O=C1c2cc3c(cc2-c2c1c1ccc(Cl)cc1c(=O)n2CCCn1ccnc1)OCO3` [Compound 39], for which the concentration for 50% growth inhibition (GI50) – broadly, the concentration giving 50% growth inhibition – in data set [1] was found to be 24 nM. Besides, on recombinant TDP1 (setting [2]), the IC50 was 37 to 111 µM.
`COC1C=c2c3c([nH]c(=O)c2=CC1(CCCN1CCSCC1)OC)-c1cc2c(cc1C3=O)OCO2` (centres unmarked) [Compound 5r, 3-[(Thiomorpholin-4-yl)-1-propyl]-5,6-dihydro-2,3-dimethoxy-8,9-methylenedioxy-5,11-dioxo-11H-indeno[1,2-c]isoquinoline]: the melting point (usually the temperature of the solid-liquid transition) fell in the range of 306 to 308 °C.
In the case of `O=C1c2cc3c(cc2-c2c1c1ccc(F)cc1c(=O)n2CCCn1ccnc1)OCO3` [Compound 36], in data set [1], the concentration for 50% growth inhibition (GI50) amounted to 11 nM. Also, at recombinant TDP1 (setting [2]), the IC50 was more than 111 µM.
On to `COc1cc2c(=O)n(CCCN3CCOCC3)c3c(c2cc1OCCCN(C)C)C(=O)c1cc2c(cc1-3)OCO2` [Compound 23, 2-(3-(Dimethylamino)propoxy)-3-methoxy-6-(3-morpholinopropyl)-5H-[1,3]dioxolo[4′,5′:5,6]indeno[1,2-c]isoquinoline-5,12(6H)-dione], for which, on Human recombinant Top1, the “Top1 inhibitory activity (level)” value is recorded as “+++” and the “Top1 (compound-induced DNA cleavage due to Top1 inhibition)” value is listed as “+++”. Also, the IC50 at recombinant TDP1 (setting [3]) lay in the range of 12 to 37 µM. For the same compound, on recombinant TDP1 (setting [4]), the IC50 fell in the range of 12 to 37 µM.
`COc1cc2c(=O)n(CCCN3CCOCC3)c3c(c2cc1OCCCBr)C(=O)c1cc2c(cc1-3)OCO2` [Compound 19, 2-(3-Bromopropoxy)-3-methoxy-6-(3-morpholinopropyl)-5H-[1,3]dioxolo[4′,5′: 5,6]indeno[1,2-c]isoquinoline-5,12(6H)-dione] had a melting point of 197 to 199 °C.
As to `COc1cc2c(=O)n(CCCN3CCOCC3)c3c(c2cc1OCC(=O)NN)C(O)c1cc2c(cc1-3)OCO2` (centres unmarked) [Compound 31, 2-((12-Hydroxy-3-methoxy-6-(3-morpholinopropyl)-5-oxo-6,12-dihydro-5H-[1,3]dioxolo[4′,5′:5,6]indeno[1,2-c]isoquinolin-2-yl)oxy)acetohydrazide], at Human recombinant Top1, the “Top1 inhibitory activity (level)” value was “+ or ++” and the “Top1 (compound-induced DNA cleavage due to Top1 inhibition)” value is “+”. Moreover, the IC50 on recombinant TDP1 (setting [3]) was more than 111 µM.
With `O=C1c2cc3c(cc2-c2c1c1ccc(F)cc1c(=O)n2CCCN1CCOCC1)OCO3` [Compound 37], the IC50 at recombinant TDP1 (setting [2]) was more than 111 µM.
Take `O=C1c2cc3c(cc2-c2c1c1ccc(Cl)cc1c(=O)n2CCCNCCO)OCO3` [Compound 41]: the GI50 in data set [1] came out at 229 nM. In addition, the IC50 on recombinant TDP1 (setting [2]) was 1 to 12 µM.
For `O=C1c2cc3c(cc2-c2c1c1cc(F)c(F)cc1c(=O)n2CCCn1ccnc1)OCO3` [Compound 42], in data set [1], the 50% growth inhibitory concentration (GI50) came out at 30 nM. Further, the IC50 at recombinant TDP1 (setting [2]) was more than 111 µM.
Regarding `O=C1c2cc3c(cc2-c2c1c1cc(Cl)c(Cl)cc1c(=O)n2CCCn1ccnc1)OCO3` [Compound 44], the GI50 in data set [1] amounted to 17 nM. Further, the IC50 at recombinant TDP1 (setting [2]) was more than 111 µM.
As for `COC1C=c2c3c([nH]c(=O)c2=CC1(CCCN1CCOCC1)OC)-c1cc2c(cc1C3=O)OCO2` (centres unmarked) [Compound 5q, 3-[(Morpholin-4-yl)-1-propyl]-5,6-dihydro-2,3-dimethoxy-8,9-methylenedioxy-5,11-dioxo-11H-indeno[1,2-c]isoquinoline], the melting point lay in the range of 290 to 292 °C.
As for `O=C1c2cc3c(cc2-c2c1c1ccc(F)cc1c(=O)n2CCCNCCO)OCO3` [Compound 38], the GI50 in data set [1] turned out to be 55 nM. For the same compound, the IC50 on recombinant TDP1 (setting [2]) fell in the range of 1 to 12 µM.
Compound `COc1cc2c3c(n(CCCNCCC4COCCN4)c(=O)c2cc1OC)-c1cc2c(cc1C3=O)OCO2` (centres unmarked) [Compound 5x, 6-[(3-Morpholylethylamino)-1-propyl]-5,6-dihydro-2,3-dimethoxy-8,9-methylenedioxy-5,11-dioxo-11H-indeno[1,2-c]isoquinoline] returned a melting point of 215 to 217 °C.
Regarding `CCNCCCOc1cc2c3c(n(CCCN4CCOCC4)c(=O)c2cc1OC)-c1cc2c(cc1C3=O)OCO2` [Compound 24, 2-(3-(Ethylamino)propoxy)-3-methoxy-6-(3-morpholinopropyl)-5H-[1,3]dioxolo [4′,5′:5,6]indeno[1,2-c]isoquinoline-5,12(6H)-dione], on Human recombinant Top1, the “Top1 inhibitory activity (level)” value is listed as “+++” and the “Top1 (compound-induced DNA cleavage due to Top1 inhibition)” value is listed as “+++”. The IC50 on recombinant TDP1 (setting [3]) is 12 to 37 µM. In addition, the IC50 on recombinant TDP1 (setting [4]) was 12 to 37 µM.
Regarding `COc1cc2c(=O)n(CCCN3CCOCC3)c3c(c2cc1OCCCN1CCN(C)CC1)C(=O)c1cc2c(cc1-3)OCO2` [Compound 26, 3-Methoxy-2-(3-(4-methylpiperazin-1-yl)propoxy)-6-(3-morpholinopropyl)-5H-[1,3]dioxolo[4′,5′:5,6]indeno[1,2-c]isoquinoline-5,12(6H)-dione], at Human recombinant Top1, the “Top1 inhibitory activity (level)” value is “+++” and the “Top1 (compound-induced DNA cleavage due to Top1 inhibition)” value was “+++”. Besides, the “TDP1 inhibitory activity (in words)” value on recombinant TDP1 was “no TDP1 inhibitory activity was observed”. Further, the IC50 on recombinant TDP1 (setting [3]) is more than 111 µM.
